Reference: ChEMBL document CHEMBL1134207, “Synthesis and antiviral activity of novel D- and L-2'-azido-2',3'-dideoxyribofuranosyl-4'-thiopyrimidines and purines” (Bioorg Med Chem Lett, 2001)
Converted amounts (≈) assume the structure as drawn. Each block holds one molecule with its values, some of them ahead of it. The source made the active and inactive calls. The calls are words filed in the database; no cut-off is given here.

Assays:
Type in all cases: functional, organism-based
[1] = system: Human alphaherpesvirus 1; assay: Tested for antiviral activity against HSV-1 in CCL 81 cells
[2] = system: Human alphaherpesvirus 2; assay: Tested for antiviral activity against HSV-2 in CCL 81 cells
[3] = system: Human betaherpesvirus 5; assay: Tested for antiviral activity against HCMV in […] cells
[4] = system: Human immunodeficiency virus 1; assay: Tested for antiviral activity against HIV-1 in MT-4 cells; conditions: MT4
[5] = system: Human betaherpesvirus 5; assay: Tested for antiviral activity against HCMV in AD169 cell line; conditions: Human betaherpesvirus 5, AD169
[6] = system: Human betaherpesvirus 5; assay: Tested for antiviral activity against HCMV in Davis cell line; conditions: Human betaherpesvirus 5, Davis

SMILES: [N-]=[N+]=N[C@H]1C[C@H](COC(=O)c2ccccc2)S[C@H]1n1ccc(=O)n(C(=O)c2ccccc2)c1=O
- Activity [1]: inactive
- Activity [2]: inactive
- Activity [3]: Significant activity
- Activity [4]: inactive

SMILES: CNc1ncnc2c1ncn2[C@@H]1S[C@@H](CO)C[C@@H]1N=[N+]=[N-]
- Activity [1]: inactive
- Activity [2]: inactive
- Activity [3]: Significant activity
- Activity [4]: inactive

SMILES: [N-]=[N+]=N[C@H]1C[C@H](CO)S[C@H]1n1ccc(=O)[nH]c1=O
- Activity [1]: inactive
- Activity [2]: inactive
- Activity [3]: Significant activity
- Activity [4]: inactive

SMILES: [N-]=[N+]=N[C@@H]1C[C@@H](CO)S[C@@H]1n1cnc2c(N)ncnc21
- Activity [1]: inactive
- Activity [2]: inactive
- Activity [3]: Significant activity
- Activity [4]: inactive

SMILES: CNc1ncnc2c1ncn2[C@H]1S[C@@H](CO)C[C@@H]1N=[N+]=[N-]
- Activity [1]: inactive
- Activity [2]: inactive
- Activity [3]: Significant activity
- Activity [4]: inactive

SMILES: [N-]=[N+]=N[C@@H]1C[C@@H](CO)S[C@@H]1n1cnc2c(Cl)ncnc21
- Activity [1]: inactive
- Activity [2]: inactive
- Activity [3]: Significant activity
- Activity [4]: inactive

SMILES: [N-]=[N+]=N[C@H]1C[C@H](CO)S[C@H]1n1cnc2c(O)ncnc21
- Activity [1]: inactive
- Activity [2]: inactive
- Activity [3]: Significant activity
- Activity [4]: inactive

SMILES: Cc1cn([C@H]2S[C@@H](CO)C[C@@H]2N=[N+]=[N-])c(=O)[nH]c1=O
- Activity [1]: inactive
- Activity [2]: inactive
- Activity [3]: Significant activity
- Activity [4]: inactive

SMILES: [N-]=[N+]=N[C@@H]1C[C@@H](CO)S[C@H]1n1cnc2c(N)ncnc21
- Activity [1]: inactive
- Activity [2]: inactive
- Activity [3]: Significant activity
- Activity [4]: inactive

SMILES: [N-]=[N+]=N[C@H]1C[C@H](CO)S[C@@H]1n1ccc(=O)[nH]c1=O
- Activity [1]: inactive
- Activity [2]: inactive
- Activity [3]: Significant activity
- Activity [4]: inactive

SMILES: [N-]=[N+]=N[C@H]1C[C@H](CO)S[C@H]1n1cnc2c(Cl)ncnc21
- Activity [1]: inactive
- Activity [2]: inactive
- Activity [3]: Significant activity
- Activity [4]: inactive

SMILES: [N-]=[N+]=N[C@H]1C[C@H](CO)S[C@@H]1n1cnc2c(Cl)ncnc21
- Activity [1]: inactive
- Activity [2]: inactive
- Activity [3]: Significant activity
- Activity [4]: inactive

SMILES: [N-]=[N+]=N[C@H]1C[C@H](COC(=O)c2ccccc2)S[C@@H]1n1ccc(=O)n(C(=O)c2ccccc2)c1=O
- Activity [1]: inactive
- Activity [2]: inactive
- Activity [3]: Significant activity
- Activity [4]: inactive

- EC50 [5]: 26.1 µg/mL (≈ 85.2 µM)
- EC50 [6]: 90.2 µg/mL (≈ 294 µM)
SMILES: CNc1ncnc2c1ncn2[C@@H]1S[C@H](CO)C[C@H]1N=[N+]=[N-]

SMILES: [N-]=[N+]=N[C@H]1C[C@H](CO)S[C@H]1n1ccc(N)nc1=O
- Activity [1]: inactive
- Activity [2]: inactive
- Activity [3]: Significant activity
- Activity [4]: inactive

SMILES: [N-]=[N+]=N[C@H]1C[C@H](CO)S[C@@H]1n1cnc2c(N)ncnc21
- Activity [1]: inactive
- Activity [2]: inactive
- Activity [3]: Significant activity
- Activity [4]: inactive

SMILES: [N-]=[N+]=N[C@H]1C[C@H](CO)S[C@@H]1n1ccc(N)nc1=O
- Activity [1]: inactive
- Activity [2]: inactive
- Activity [3]: Significant activity
- Activity [4]: inactive

SMILES: CC(C)(C)[Si](OC[C@H]1C[C@H](N=[N+]=[N-])[C@H](n2ccc(NC(=O)c3ccccc3)nc2=O)S1)(c1ccccc1)c1ccccc1
- Activity [1]: inactive
- Activity [2]: inactive
- Activity [3]: Significant activity
- Activity [4]: inactive

SMILES: Cc1cn([C@@H]2S[C@@H](CO)C[C@@H]2N=[N+]=[N-])c(=O)[nH]c1=O
- Activity [1]: inactive
- Activity [2]: inactive
- Activity [3]: Significant activity
- Activity [4]: inactive

SMILES: [N-]=[N+]=N[C@@H]1C[C@@H](CO)S[C@H]1n1cnc2c(Cl)ncnc21
- Activity [1]: inactive
- Activity [2]: inactive
- Activity [3]: Significant activity
- Activity [4]: inactive

SMILES: [N-]=[N+]=N[C@H]1C[C@H](CO)S[C@H]1n1cnc2c(N)ncnc21
- Activity [1]: inactive
- Activity [2]: inactive
- Activity [3]: Significant activity
- Activity [4]: inactive

SMILES: CC(=O)OC1S[C@@H](CO[Si](c2ccccc2)(c2ccccc2)C(C)(C)C)C[C@@H]1N=[N+]=[N-] (stereo partly drawn)
- Activity [1]: inactive
- Activity [2]: inactive
- Activity [3]: inactive
- Activity [4]: inactive

- EC50 [5]: 19.1 µg/mL (≈ 62.5 µM)
- EC50 [6]: 25.8 µg/mL (≈ 84.2 µM)
SMILES: CNc1ncnc2c1ncn2[C@H]1S[C@H](CO)C[C@H]1N=[N+]=[N-]

- EC50 [5]: 0.98 µg/mL (≈ 3.84 µM)
- EC50 [6]: 4.07 µg/mL (≈ 15.9 µM)
SMILES: Nc1nc2c(ncn2COC(CO)CO)c(=O)[nH]1 [GANCICLOVIR]

SMILES: CC(C)(C)[Si](OC[C@H]1C[C@H](N=[N+]=[N-])[C@@H](n2ccc(NC(=O)c3ccccc3)nc2=O)S1)(c1ccccc1)c1ccccc1
- Activity [1]: inactive
- Activity [2]: inactive
- Activity [3]: Significant activity
- Activity [4]: inactive

SMILES: [N-]=[N+]=N[C@H]1C[C@H](CO)S[C@@H]1n1cnc2c(O)ncnc21
- Activity [1]: inactive
- Activity [2]: inactive
- Activity [3]: Significant activity
- Activity [4]: inactive
